Reference: publication PMC11509018, “Evaluation of the Role of Tanshinone I in an In Vitro System of Charcot-Marie-Tooth Disease Type 2N” (International Journal of Molecular Sciences, 2024)

Target: T1, AlaRS N71Y binding to Nrp1 (Homo sapiens, UniProt P49588, N71Y)
T1 construct: expressed in transfected cells
T1 sequence (P49588 1-968 N71Y): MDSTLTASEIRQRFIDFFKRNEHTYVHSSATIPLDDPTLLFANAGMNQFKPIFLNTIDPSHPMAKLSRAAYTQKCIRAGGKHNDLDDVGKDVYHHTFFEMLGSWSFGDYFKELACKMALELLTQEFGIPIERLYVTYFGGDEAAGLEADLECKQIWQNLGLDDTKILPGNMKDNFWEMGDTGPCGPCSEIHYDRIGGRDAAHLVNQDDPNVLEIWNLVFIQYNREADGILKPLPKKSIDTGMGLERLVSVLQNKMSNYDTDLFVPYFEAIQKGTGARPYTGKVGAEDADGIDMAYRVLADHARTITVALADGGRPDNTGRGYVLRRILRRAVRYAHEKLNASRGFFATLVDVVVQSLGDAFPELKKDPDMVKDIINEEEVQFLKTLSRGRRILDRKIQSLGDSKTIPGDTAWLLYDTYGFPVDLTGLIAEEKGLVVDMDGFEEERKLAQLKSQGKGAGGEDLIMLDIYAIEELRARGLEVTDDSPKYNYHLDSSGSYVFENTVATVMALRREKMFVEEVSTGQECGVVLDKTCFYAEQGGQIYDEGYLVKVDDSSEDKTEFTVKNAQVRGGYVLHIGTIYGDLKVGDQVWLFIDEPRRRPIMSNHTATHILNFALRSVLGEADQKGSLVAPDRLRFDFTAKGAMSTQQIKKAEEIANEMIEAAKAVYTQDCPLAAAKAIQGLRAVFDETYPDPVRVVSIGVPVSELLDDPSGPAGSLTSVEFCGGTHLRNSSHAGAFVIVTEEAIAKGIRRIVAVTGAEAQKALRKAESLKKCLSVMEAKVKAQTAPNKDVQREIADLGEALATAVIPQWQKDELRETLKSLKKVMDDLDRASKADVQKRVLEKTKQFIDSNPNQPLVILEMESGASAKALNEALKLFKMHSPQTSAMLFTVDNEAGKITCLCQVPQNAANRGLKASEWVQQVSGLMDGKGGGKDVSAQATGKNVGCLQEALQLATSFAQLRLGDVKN
Test: Co-IP of HA-AlaRS mutant with Nrp1 in transfected cells
Type: cell-based
Settings: 20 µM Tanshinone I for 24 h, ImageJ, average of three repeats
Description: To further investigate whether Tanshinone I-induced conformational changes in AlaRS CMT mutants affect their interaction with Nrp1, Co-IP experiments were performed in cells treated with Tanshinone I. By comparing Co-IP results obtained before and after treatment, we assessed the influence of the drug on the binding strength and mode between the AlaRS CMT mutants and Nrp1. […] To confirm the direct effect of Tanshinone I on the interaction between AlaRS CMT mutants and Nrp1, pull-down experiments were performed. […] Given that the interaction between AlaRS mutants and Nrp1 is associated with disease progression in CMT, the ability of Tanshinone I to disrupt this binding highlights its potential to intervene in the pathogenic mechanisms of these diseases.
Figure 7 The impact of Tanshinone I on the interaction between AlaRS mutants and Nrp1. (A) Co-IP assays were conducted to assess the binding between HA-AlaRS mutants and Nrp1, both with and without treatment with 20 µM Tanshinone I for 24 h. […] (C) Pull down assay was performed to detect the binding between AlaRS mutants and GST-Nrp1 b1 with or without 20 µM Tanshinone I. (D) Relative quantification statistics of the AlaRS mutants pulled down from the GST pull down experiments after Tanshinone I treatment were performed using ImageJ. (E) The cell viability of 293T and NSC34 cells treated with different concentrations of Tanshinone I was assessed using the CCK-8 assay over a 24 h period. TEXT PRINTED IN THE PICTURE: (B) Tanshinone I: Mean density band (N71Y): 0.60; Mean density band (G102R): 0.53; Mean density band (R326W): 0.50; Mean density band (R329H): 0.50; Mean density band (E337K): 0.62 | (D) Tanshinone I: Mean density band (N71Y): 0.82; Mean density band (G102R): 0.76; Mean density band (R326W): 0.84; Mean density band (R329H): 0.84; Mean density band (E337K): 0.90
Total protein was extracted from cells using RIPA buffer (50 mM Tris-HCl pH 7.4, 150 mM NaCl, 1% NP40, 1 mM EDTA) supplemented with a protease and phosphatase inhibitor cocktail (Roche, Basel, Switzerland). After SDS-PAGE, the protein on the gel was transferred to a PVDF membrane (Bio-Rad, Hercules, CA, USA) and then blocked with 5% non-fat dry milk in TBST for 1 h. Then, the membranes were incubated with the indicated primary antibodies and corresponding HRP-conjugated secondary antibodies. Signals were detected using the Bio-Rad ChemiDoc system (Bio-Rad, Shanghai, China). The following antibodies were used: Flag (Ray antibody biotech, Beijing, China, 1:3000), HA (Ray antibody biotech, Beijing, China, 1:3000), and GAPDH (Ray antibody biotech, Beijing, China, 1:5000).
To detect the binding of Nrp1 and AlaRS mutants in cells, whole-cell lysates (500 μg) were treated overnight with 2 μg of anti-Flag antibody in RIPA buffer. Next, Protein A/G agarose beads (#sc-2003, Santa Cruz Biotechnology, Santa Cruz, CA, USA) were applied to the lysates and the samples were further treated for 8–12 h with rotation. Samples were washed three times with RIPA buffer. Subsequently, the immunoprecipitations were resuspended into 2 × SDS-loading buffer. The samples were then boiled for 10 min and detected using Western blot. The experiment was repeated three times.

Cc1coc2c1C(=O)C(=O)c1c-2ccc2c(C)cccc12 [Tanshinone I]
Mean density band (N71Y), relative quantification of AlaRS mutant immunoprecipitated: 0.60
